US8802161B2, “Herbal composition and method of use for the treatment of cancer” (Florida Agricultural and Mechanical University, priority 2003, dated 2014)
Where two headings read alike, the source gives them in different places. Blank lines part the entries; values can stand above or below the compound they belong to.

Assays:
N-2A neuroblastoma cells = test: in vitro screening of >700 nutraceuticals for tumoricidal properties (loss of cell viability, 24 H); type: cell-based; settings: 24 H incubation at 37° C.
Method: In brief, we conducted a large scale screening of over 700 commonly sold nutritional supplements for relative tumoricidal properties in vitro.
The data represent loss of cell viability after 24 H incubation at 37° C., and represent the Mean±S.E.M. . . . n=4

LDH Type V = biological target: T1, LDH Type V (Oryctolagus cuniculus, UniProt P13491); test: LDH enzyme kinetic activity (NADH oxidation); type: biochemical, rabbit
T1 construct: were determined in pure isolated enzyme preparations; from tissue; host or cells: rabbit muscle
Description: FIG. 2—The toxicity of selected plant extracts and 2′,3,4′5,7-pentahydroxyflavone were previously determined on N-2A neuroblastoma cells prior to examination of their effects on kinetic activity of pyruvate kinase (PK) and LDH (data not shown). Briefly, the effects of experimental compounds on PK and LDH Type V, resembling that inherent to human cancer (Koukourakis et al., Br J Cancer. 2003; 89:877-85; Augoff and Grabowski. Pol Merkuriusz Lek 2004; 17:644-7; Nagai et al., Int J Cancer. 198815; 10-6; Evans et al., Biol. Chem. 1985; 260:306-14) were determined in pure isolated enzyme preparations. Briefly, PK Type III (from rabbit muscle [2.7.1.40]) was prepared in distilled water+HEPES (pH 7.5), at a concentration of 0.5 enzyme U/ml. Pyruvic acid was converted to lactate in the presence of LDH (from rabbit muscle, type V-S [EC 1.1.1.27]), at a concentration of 10 U/ml in the presence of adenosine, 2′,5′-diphospahte (ADP) (1.5 mM), β-NADH (1 mM)±magnesium sulfate (MgSO4) (5 mM). Experimental compounds were incubated with the enzyme solution for 10 minutes and addition of 1 mM phosphoenolpyruvate (PEP) prepared in distilled water started the reaction. Negative controls were established for all compounds tested. Enzyme activities were determined by spectrophotometric analysis using a UV spectrometer at 340 nm, by monitoring the oxidation of NADH. Experimental compounds that blocked the reaction through the PK/LDH cascade, were re-analyzed for LDH inhibition. LDH activity was achieved using an enzyme reaction mixture, minus PK or PEP, and starting the reaction with pyruvate (1 mM) prepared in buffered distilled water. Validation studies for LDH kinetic activity were established by monitoring the oxidation of NADH over time and concentration with dual detection quantifying lactic acid using a lactate oxidase based colorimetric enzymatic assay (Procedure No 735, Sigma Diagnostics, St. Louis, Mo.). FIG. 2A describes the effect of tumoricidal plant extracts and 2′,3,4′5,7-pentahydroxyflavone on inhibition of PK/LDH activity. The data represent reaction rate of NADH oxidation in the presence of enzyme/cofactor reagents+PEP (1 mM)±varying concentration of experimental compounds at 30 Min. […] Significance of difference from the controls were determined by a one-way ANOVA, followed by a Tukey mean comparison post hoc test, [*] group P<0.001,*P<0.001. FIG. 2B describes the effect of tumoricidal plant-extracts and 2′,3,4′5,7-pentahydroxyflavone on inhibition of LDH activity. The data represent reaction rate of NADH oxidation in the presence of enzyme/cofactor reagents+pyruvate (1 mM)±single level of experimental compound over time. […] Significance of difference from the control was determined by a two-way ANOVA, [*] P<0.001.

complex IV = test: mitochondrial respiration / O2 utilization through complex IV in cancer cells; type: cell-based
[1] = system: mitochondrial complex's I and IV; test: Vmax and Km of mitochondrial complexes I and IV; type: biochemical
cancer cells = test: lethality to cancer cells; type: cell-based
[2] = system: neuroblastoma and MCF-7 cell line; test: toxicity of 3-BP versus 2,3-DMBQ: growth inhibition of MCF-7 cells and cell viability of N2A cells; type: cell-based; settings: 24 hour incubation (FIGS. 3A,B)
Method: Briefly, cells were grown in Eagles MEM medium with […] and 10% calf serum and plated at 5′ 104 cells in 24 well plates. Appropriate positive (tamoxifen) and negative (no drug) controls were maintained simultaneously. After 24 hour incubation, cells were trypsined and collected by centrifugation, re-suspended in fresh media and cells were counted using trypan blue dye on a hemocytometer. […] FIG. 3B represents the evaluation of 3-BP versus 2,3-DMBQ on cell viability in N2A neuroblastoma cell line. Briefly, the experimental media consisted of DMEM (without phenol red), supplemented with 1.8% FBS (v/v), penicillin (100 U/ml)/streptomycin (0.1 mg/ml), 4 mM L-glutamine and 2 μM sodium pyruvate. Cells were plated at approximately 0.5×10^6 cells/ml in 96 well plates. A stock solution of each experimental compound was prepared in HBSS containing 5 mM HEPES, adjusted to a pH of 7.4. After 24 hours incubation at 37° C. and 5% CO2/atmosphere almar blue indicator dye was used to assess cell viability. Quantitative analysis of dye conversion was measured on a microplate fluorometer—Model 7620-version 5.02, Cambridge Technologies Inc. with settings fixed at [550/580], [excitation/emission], wavelengths. […]

[3] = system: MD-MB-231 human mammary carcinoma; test: efficacy against MD-MB-231 human mammary carcinoma xenograft; type: in vivo, Nu/Nu nude mice; settings: in comparison to a vehicle control; formulation i.p./s.c., taxol i.v.
Method: Briefly, 6 week old female Nu/Nu mice were kept in an autoclaved micro isolator cage, maintained under pathogen free conditions. The tumors were ascetically surgically removed and transferred to a sterile Petri dish containing RPMI-1640. The homogenate was centrifuged, pelleted, resuspended into a concentration of 10 million cells/ml and injected into the mammary fat pad. The tumors were established by day 9 after implant and treatment began. The formula was prepared in sterile saline, and administered by i.p. injection for 3 days and s.c for the next 3 days, stopping at day 15. Taxol—(24 mg/kg in 2% PEG 300, 8% cremophor CL an 80% sterile Saline) was administered i.v. intermittently up to day 19 (days 10,13,16 and 19). […] The data represents tumor volume estimation (mm3) and expressed as the mean±S.E.M., n=4, for treatment groups, with n=1 for the control. […] The data represents weight gain (g) and are expressed as the mean±S.E.M., n=4, for treatment groups, with n=1 for the control.

mitochondrial complex II = test: kinetic activity of mitochondrial complex II in cancer cells; type: biochemical

Structure (SMILES): CC(C)=CCC[C@]1(C)C=Cc2c(O)c3c(c(CC=C(C)C)c2O1)O[C@]12C(=C[C@@H]4C[C@H]1C(C)(C)O[C@@]2(C/C=C(/C)C(=O)O)C4=O)C3=O [gambogic acid]
- tumoricidal potency (loss of cell viability) (N-2A neuroblastoma cells): most potent tumoricidal

Structure (SMILES): O=C(O[C@@H]1Cc2c(O)cc(O)cc2O[C@@H]1c1cc(O)c(O)c(O)c1)c1cc(O)c(O)c(O)c1 [epigallocatechin gallate]
- LDH inhibition (LDH enzyme kinetic profiles) (LDH Type V): LDH inhibitors

- Vmax and Km of mitochondrial complex's I and IV [1]: augmenting the Vmax and reduction of Km
Structure (SMILES): Cc1cc2nc3c(=O)[nH]c(=O)nc-3n(C[C@H](O)[C@H](O)[C@H](O)CO)c2cc1C [vitamin B2, 7,8-dimethyl-10-ribityl-isoalloxazine]
- rate of mitochondrial respiration or O2 utilization through complex IV (complex IV): drastically potentiates

Structure (SMILES): C[C@H]1[C@H](C)CC[C@]2(C)CC[C@]3(C)C(=CC[C@@H]4[C@@]5(C)CC[C@@H](O)[C@](C)(C(=O)O)[C@@H]5CC[C@]43C)[C@H]12 [boswellic acid]
- tumoricidal potency (loss of cell viability) (N-2A neuroblastoma cells): most potent tumoricidal

Structure (SMILES): COc1ccc(-c2cc(=O)c3c(O)cc(O[C@@H]4O[C@H](CO[C@@H]5O[C@@H](C)[C@H](O)[C@@H](O)[C@H]5O)[C@@H](O)[C@H](O)[C@H]4O)cc3o2)cc1O [diosmin]
- tumoricidal potency (loss of cell viability) (N-2A neuroblastoma cells): most potent tumoricidal

- Vmax and Km of mitochondrial complex's I and IV [1]: augmenting the Vmax and reduction of Km
Structure (SMILES): Cc1cc2nc3c(=O)[nH]c(=O)nc-3n(C[C@H](O)[C@H](O)[C@H](O)COP(=O)(O)OP(=O)(O)OC[C@H]3O[C@@H](n4cnc5c(N)ncnc54)[C@H](O)[C@@H]3O)c2cc1C [FAD, flavin adenine dinucleotide]

- LDH inhibition (LDH enzyme kinetic profiles) (LDH Type V): inhibitor
Structure (SMILES): O=c1c(O)c(-c2ccc(O)cc2O)oc2cc(O)cc(O)c12 [2′,3,4′5,7-pentahydroxyflavone]

Structure (SMILES): COC1=C(OC)C(=O)C(C)=CC1=O [DMBQ]
- lethality to cancer cells (cancer cells): lethal
- toxicity relative to bromopyruvate [2]: > 50 ×

Structure (SMILES): CC(=O)O[C@H]1C(=O)[C@@]2(C)[C@H]([C@H](OC(=O)c3ccccc3)[C@]3(O)C[C@H](OC(=O)[C@H](O)[C@@H](NC(=O)c4ccccc4)c4ccccc4)C(C)=C1C3(C)C)[C@]1(OC(C)=O)CO[C@@H]1C[C@@H]2O [taxol®]
- tumor growth and growth latency [3]: reduced tumor growth and growth latency

- LDH inhibition (LDH enzyme kinetic profiles) (LDH Type V): LDH inhibitors
Structure (SMILES): O=C(O)CC(O)(CC(=O)O)C(=O)O [citric acid]

- Vmax and Km of mitochondrial complex's I and IV [1]: augmenting the Vmax and reduction of Km
Structure (SMILES): Cc1cc2nc3c(=O)[nH]c(=O)nc-3n(C[C@H](O)[C@H](O)[C@H](O)COP(=O)(O)O)c2cc1C [FMN, flavin mononucleotide]

Structure (SMILES): O=c1c(O)c(-c2ccc(O)c(O)c2)oc2cc(O)cc(O)c12 [quercetin]
- LDH inhibition (LDH enzyme kinetic profiles) (LDH Type V): LDH inhibitors

Structure (SMILES): COC1=C(OC)C(=O)C(C/C=C(\C)CC/C=C(\C)CC/C=C(\C)CC/C=C(\C)CC/C=C(\C)CC/C=C(\C)CC/C=C(\C)CC/C=C(\C)CC/C=C(\C)CCC=C(C)C)=C(C)C1=O [CoQ10, ubiquinone (50)]
- rate of mitochondrial respiration or O2 utilization through complex IV (complex IV): did not control
- rate of mitochondrial respiration or O2 utilization through complex IV (complex IV; listed as ubiquinone (50)): no positive effect
- lethality to cancer cells (cancer cells): not as lethal as expected
- Vmax / kinetic activity of mitochondrial complex II (mitochondrial complex II): increase
- Vmax / kinetic activity of mitochondrial complex II (mitochondrial complex II; listed as ubiquinone (50)): augmenting
